This note sets out measurements from ChEMBL document CHEMBL5370599, “Discovery of a 53BP1 Small Molecule Antagonist Using a Focused DNA-Encoded Library Screen” (J Med Chem, 2023).

The test system of series [1] is HEK-293T. In words: Cytotoxicity against HEK293T cells assessed as reduction in cell viability by celltiterglo 2.0 assay. Format: toxicity, cell-based. The note with it: human. On the technique in general: ATP-based viability assays read luminescence as a measure of living cells.
Series [2] has as its system TERT-RPE1. The series can be described thus: Cytotoxicity against human RPE-1 cells assessed as reduction in cell viability by celltiterglo 2.0 assay. It is filed as toxicity, cell-based.
For series [3], the system named is TERT-RPE1. The series can be described thus: Cytotoxicity against human RPE-1 cells assessed as reduction in cell viability measured upto 200 uM by celltiterglo 2.0 assay. Format: toxicity, cell-based. Conditions: tert-rpe1, 200 µM.
Series [4] relates to HEK-293T. The series can be described thus: Cytotoxicity against HEK293T cells assessed as reduction in cell viability measured upto 200 uM by celltiterglo 2.0 assay. Format: toxicity, cell-based. Conditions: human.
For series [5], the target named is Histone-lysine N-methyltransferase SETDB1 (Homo sapiens, UniProt Q15047). In words: Displacement of Biotin-p53K381acK382me2 from SETDB1 tandem tudor domain (unknown origin) by TR-FRET assay. On the technique in general: TR-FRET usually uses a lanthanide donor and a delayed reading to cut background.
The target of series [6] is T1, TP53-binding protein 1 (Homo sapiens, UniProt Q12888). In words: Binding affinity to N-terminal his6-tagged 53BP1 (1484 to 1603 residues) (unknown origin) expressed in Rosetta2 BL21 (DE3) pLysS competent cells assessed as dissociation constant by SPR analysis. (Surface plasmon resonance follows binding to a sensor surface in real time, without labels.)
T1 sequence (Q12888 whole entry, the tested form may be a part): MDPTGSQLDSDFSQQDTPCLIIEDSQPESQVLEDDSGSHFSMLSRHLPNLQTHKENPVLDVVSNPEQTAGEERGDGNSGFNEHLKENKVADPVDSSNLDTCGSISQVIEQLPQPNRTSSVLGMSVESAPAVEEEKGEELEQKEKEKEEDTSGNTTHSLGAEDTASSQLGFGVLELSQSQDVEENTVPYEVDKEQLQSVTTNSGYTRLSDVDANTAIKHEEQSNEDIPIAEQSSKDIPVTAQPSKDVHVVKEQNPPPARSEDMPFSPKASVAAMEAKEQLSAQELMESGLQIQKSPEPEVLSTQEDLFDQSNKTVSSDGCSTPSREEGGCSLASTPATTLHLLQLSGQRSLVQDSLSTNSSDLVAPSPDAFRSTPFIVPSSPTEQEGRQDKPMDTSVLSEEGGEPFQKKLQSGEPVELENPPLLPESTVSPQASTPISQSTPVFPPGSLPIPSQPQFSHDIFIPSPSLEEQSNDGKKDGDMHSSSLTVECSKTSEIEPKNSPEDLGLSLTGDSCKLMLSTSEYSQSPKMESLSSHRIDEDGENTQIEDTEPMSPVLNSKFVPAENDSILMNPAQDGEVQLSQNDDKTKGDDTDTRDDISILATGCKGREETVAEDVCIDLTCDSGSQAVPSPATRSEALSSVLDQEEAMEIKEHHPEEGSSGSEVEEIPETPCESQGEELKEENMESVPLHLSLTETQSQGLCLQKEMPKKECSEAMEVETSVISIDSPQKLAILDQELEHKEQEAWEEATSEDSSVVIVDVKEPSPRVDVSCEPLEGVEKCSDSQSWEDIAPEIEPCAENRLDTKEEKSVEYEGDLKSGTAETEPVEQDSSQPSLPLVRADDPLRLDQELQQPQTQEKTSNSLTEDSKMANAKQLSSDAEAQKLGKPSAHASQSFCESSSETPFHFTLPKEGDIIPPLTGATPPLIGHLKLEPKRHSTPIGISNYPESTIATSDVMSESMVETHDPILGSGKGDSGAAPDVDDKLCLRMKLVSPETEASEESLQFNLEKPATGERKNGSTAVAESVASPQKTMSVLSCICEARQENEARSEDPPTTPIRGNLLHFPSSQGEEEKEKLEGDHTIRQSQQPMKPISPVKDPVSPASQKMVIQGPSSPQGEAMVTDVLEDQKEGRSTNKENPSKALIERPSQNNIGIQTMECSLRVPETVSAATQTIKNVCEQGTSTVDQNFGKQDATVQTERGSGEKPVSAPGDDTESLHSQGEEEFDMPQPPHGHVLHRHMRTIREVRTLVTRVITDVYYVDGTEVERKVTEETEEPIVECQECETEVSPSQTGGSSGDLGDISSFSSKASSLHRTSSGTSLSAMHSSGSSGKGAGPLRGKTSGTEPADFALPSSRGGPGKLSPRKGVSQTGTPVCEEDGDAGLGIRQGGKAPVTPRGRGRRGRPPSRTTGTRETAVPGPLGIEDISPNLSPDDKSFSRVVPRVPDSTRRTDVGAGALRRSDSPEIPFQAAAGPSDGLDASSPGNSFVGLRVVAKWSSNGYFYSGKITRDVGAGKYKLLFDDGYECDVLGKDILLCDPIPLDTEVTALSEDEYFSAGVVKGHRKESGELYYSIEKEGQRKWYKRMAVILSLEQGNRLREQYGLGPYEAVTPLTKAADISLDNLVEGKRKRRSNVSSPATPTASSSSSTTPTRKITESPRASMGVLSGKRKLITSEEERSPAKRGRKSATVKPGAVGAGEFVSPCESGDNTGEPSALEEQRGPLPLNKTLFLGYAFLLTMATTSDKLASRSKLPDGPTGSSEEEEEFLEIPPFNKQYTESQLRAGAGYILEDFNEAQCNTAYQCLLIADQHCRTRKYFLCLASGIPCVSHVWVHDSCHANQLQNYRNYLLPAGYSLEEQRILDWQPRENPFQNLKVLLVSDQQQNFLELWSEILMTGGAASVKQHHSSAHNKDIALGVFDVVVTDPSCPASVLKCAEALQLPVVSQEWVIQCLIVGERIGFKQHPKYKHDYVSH
Series [7] deals with T1, TP53-binding protein 1. In words: Antagonist activity at nanoluc-tagged 53BP1 tandem tudor domain (unknown origin) transfected in HEK293T cells assessed as inhibition of 53BP1-H4 peptide interaction by nanoBRET assay. It is filed as cell-based.
In series [8] the target is T2, Chromodomain Y-like protein 2 (Homo sapiens, UniProt Q8N8U2).
T2 sequence (Q8N8U2 whole entry): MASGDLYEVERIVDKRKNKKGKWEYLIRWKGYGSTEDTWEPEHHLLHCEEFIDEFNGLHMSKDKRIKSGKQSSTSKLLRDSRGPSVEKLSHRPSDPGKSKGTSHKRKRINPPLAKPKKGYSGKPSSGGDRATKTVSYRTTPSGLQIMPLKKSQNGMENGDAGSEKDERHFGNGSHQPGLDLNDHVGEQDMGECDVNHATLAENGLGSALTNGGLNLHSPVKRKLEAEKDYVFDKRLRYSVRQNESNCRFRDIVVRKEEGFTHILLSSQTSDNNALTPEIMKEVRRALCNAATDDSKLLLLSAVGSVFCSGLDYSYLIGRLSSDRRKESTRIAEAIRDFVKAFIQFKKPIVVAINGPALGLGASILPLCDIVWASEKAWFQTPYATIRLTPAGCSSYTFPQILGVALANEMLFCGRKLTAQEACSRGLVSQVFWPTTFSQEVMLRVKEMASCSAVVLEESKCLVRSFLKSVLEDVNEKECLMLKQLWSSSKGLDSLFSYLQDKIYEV
In words: Displacement of Biotin-p53K381acK382me2 from CDYL2 (unknown origin) by TR-FRET assay.

Series [9] addresses T1, TP53-binding protein 1. Conditions: filed as antagonist.
Description: Binding affinity to N-terminal his6-tagged 53BP1 tandem tudor domain (1484 to 1603 residues) (unknown origin) expressed in Rosetta2 BL21 (DE3) pLysS competent cells assessed as change in enthalpy by differential scanning fluorimetry analysis
The target of series [10] is T1, TP53-binding protein 1. In words: Displacement of Biotin-p53K381acK382me2 from N-terminal his6-tagged 53BP1 (1484 to 1603 residues) (unknown origin) expressed in Rosetta2 BL21 (DE3) pLysS competent cells by TR-FRET assay. It is filed as single protein.
Series [11] can be described thus: Kinetic solubility of compound by CLND analysis. It is filed as physicochemical.
Series [12] concerns the target T3, E3 ubiquitin-protein ligase UHRF1 (Homo sapiens, UniProt Q96T88).
T3 sequence (Q96T88 whole entry): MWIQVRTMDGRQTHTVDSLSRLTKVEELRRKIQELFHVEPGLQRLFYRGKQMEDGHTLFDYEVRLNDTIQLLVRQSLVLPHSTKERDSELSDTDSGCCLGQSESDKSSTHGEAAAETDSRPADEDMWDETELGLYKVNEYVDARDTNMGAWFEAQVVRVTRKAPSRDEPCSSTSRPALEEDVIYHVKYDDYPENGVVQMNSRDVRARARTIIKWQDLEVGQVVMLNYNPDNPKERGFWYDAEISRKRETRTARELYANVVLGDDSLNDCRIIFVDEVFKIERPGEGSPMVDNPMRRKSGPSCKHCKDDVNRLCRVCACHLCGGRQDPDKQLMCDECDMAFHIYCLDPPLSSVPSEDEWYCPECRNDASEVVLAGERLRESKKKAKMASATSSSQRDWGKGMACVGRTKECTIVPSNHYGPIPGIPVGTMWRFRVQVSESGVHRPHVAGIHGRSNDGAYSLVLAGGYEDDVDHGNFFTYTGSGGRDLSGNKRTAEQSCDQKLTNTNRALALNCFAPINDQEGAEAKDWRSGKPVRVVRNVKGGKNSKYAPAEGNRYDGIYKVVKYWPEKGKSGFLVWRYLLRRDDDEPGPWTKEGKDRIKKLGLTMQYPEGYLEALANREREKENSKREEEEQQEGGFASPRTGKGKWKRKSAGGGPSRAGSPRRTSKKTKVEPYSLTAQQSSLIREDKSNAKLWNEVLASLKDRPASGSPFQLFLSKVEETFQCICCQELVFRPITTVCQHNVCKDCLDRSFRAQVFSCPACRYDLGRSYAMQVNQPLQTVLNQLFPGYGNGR
In words: Displacement of Biotin-p53K381acK382me2 from UHRF1 tandem tudor domain (unknown origin) by TR-FRET assay.

The target of another series is PHD finger protein 19 (Homo sapiens, UniProt Q5T6S3). In words: Displacement of Biotin-p53K381acK382me2 from PHF19 (unknown origin) by TR-FRET assay.
The target of the next series is T4, M-phase phosphoprotein 8 (Homo sapiens, UniProt Q99549).
T4 sequence (Q99549 whole entry): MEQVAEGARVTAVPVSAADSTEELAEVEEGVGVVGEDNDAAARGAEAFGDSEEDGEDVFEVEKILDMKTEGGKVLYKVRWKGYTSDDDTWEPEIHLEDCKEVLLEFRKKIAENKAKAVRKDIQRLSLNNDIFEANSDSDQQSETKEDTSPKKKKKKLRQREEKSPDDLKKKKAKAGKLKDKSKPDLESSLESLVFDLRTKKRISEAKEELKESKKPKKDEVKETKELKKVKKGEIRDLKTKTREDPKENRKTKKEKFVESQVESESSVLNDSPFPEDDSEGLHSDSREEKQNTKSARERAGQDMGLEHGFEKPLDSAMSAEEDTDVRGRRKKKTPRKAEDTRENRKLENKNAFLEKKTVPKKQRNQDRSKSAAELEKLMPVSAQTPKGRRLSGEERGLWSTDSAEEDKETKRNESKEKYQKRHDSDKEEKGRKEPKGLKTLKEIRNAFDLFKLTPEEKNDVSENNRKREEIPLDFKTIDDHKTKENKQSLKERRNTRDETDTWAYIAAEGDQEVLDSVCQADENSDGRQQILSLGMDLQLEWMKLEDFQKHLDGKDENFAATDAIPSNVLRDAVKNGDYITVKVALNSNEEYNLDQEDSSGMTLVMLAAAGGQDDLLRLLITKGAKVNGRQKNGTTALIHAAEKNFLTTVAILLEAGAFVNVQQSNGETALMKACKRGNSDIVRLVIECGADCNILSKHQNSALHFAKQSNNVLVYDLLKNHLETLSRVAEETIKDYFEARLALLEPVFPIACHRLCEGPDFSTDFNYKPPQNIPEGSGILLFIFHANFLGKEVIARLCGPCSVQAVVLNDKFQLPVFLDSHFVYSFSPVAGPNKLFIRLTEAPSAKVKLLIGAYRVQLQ
The series can be described thus: Displacement of Biotin-p53K381acK382me2 from MPP8 chromodomain (unknown origin) by TR-FRET assay.

Series [13] concerns the target T5, Chromobox protein homolog 2 (Homo sapiens, UniProt Q14781).
T5 sequence (Q14781 whole entry): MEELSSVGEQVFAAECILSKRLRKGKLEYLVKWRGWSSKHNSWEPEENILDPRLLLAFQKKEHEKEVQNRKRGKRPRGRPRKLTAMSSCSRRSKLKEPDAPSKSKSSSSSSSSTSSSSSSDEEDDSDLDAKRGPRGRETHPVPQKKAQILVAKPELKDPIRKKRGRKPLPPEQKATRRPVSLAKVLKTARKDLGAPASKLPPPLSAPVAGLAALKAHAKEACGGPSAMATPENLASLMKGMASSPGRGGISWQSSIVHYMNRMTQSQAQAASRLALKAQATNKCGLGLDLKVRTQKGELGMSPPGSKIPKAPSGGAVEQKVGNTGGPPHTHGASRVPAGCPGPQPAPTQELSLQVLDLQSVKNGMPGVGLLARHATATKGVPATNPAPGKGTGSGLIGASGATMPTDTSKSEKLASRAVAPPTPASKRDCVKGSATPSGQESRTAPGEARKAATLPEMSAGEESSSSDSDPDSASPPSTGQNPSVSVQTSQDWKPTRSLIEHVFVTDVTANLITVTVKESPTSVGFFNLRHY
In words: Displacement of Biotin-p53K381acK382me2 from CBX2 chromodomain (unknown origin) by TR-FRET assay.

The target in series [14] is T1, TP53-binding protein 1. In words: Binding affinity to N-terminal his6-tagged 53BP1 tandem tudor domain (1484 to 1603 residues) (unknown origin) expressed in Rosetta2 BL21 (DE3) pLysS competent cells assessed as dissociation constant by ITC analysis.
Series [15] in a line: Displacement of Biotin-p53K381acK382me2 from KDM7B (unknown origin) by TR-FRET assay. On the set-up: species or system Homo sapiens.

With `O=C1NCc2ccc(-c3cccc(NC(=O)[C@H]4CCCN(C(=O)c5cc(N6CCCCC6)ccn5)C4)c3)cc21`, the Activity result with HEK-293T [1] and with TERT-RPE1 [2] was “Toxic” throughout.

Broadly, the IC50 is the concentration that gives 50% inhibition. The Kd is a measure of binding affinity in units of concentration. Consider `CN1CCN(c2ccnc(C(=O)N3CCC[C@H](C(=O)Nc4cccc(-c5ccc6c(c5)C(=O)NC6)c4)C3)c2)CC1`, for which the Activity entry in the series on TERT-RPE1 [3] and in the series on HEK-293T [4] was “Non-Toxic” in each case. The half-maximal inhibitory concentration (IC50) was more than 100 µM in series [5]; 6.9 µM at TP53-binding protein 1 [7]; more than 100 µM in series [8]; 0.46 µM at TP53-binding protein 1 [10]; more than 100 µM in series [12]; more than 100 µM at PHD finger protein 19. Moreover, the IC50 (on M-phase phosphoprotein 8; in series [13]; in series [15]) was more than 100 µM in each case. Also, the equilibrium dissociation constant (Kd) at TP53-binding protein 1 [6] turned out to be 0.17 µM; at TP53-binding protein 1 [14] it was 0.41 µM. The molecule also registered a deltaH on TP53-binding protein 1 [9] of -5.8 kcal/mol. In [11], this molecule came in with a Kinetic_solubility of 200 µM.

Turning to `CN1CCN(c2ccnc(C(=O)N3CCC[C@H](C(=O)Nc4cccc(-c5ccc(C(N)=O)cc5)c4)C3)c2)CC1`, the Activity result in the series on TERT-RPE1 [3] and in the series on HEK-293T [4] was “Non-Toxic” in each case. The IC50 in series [5] is more than 100 µM; on TP53-binding protein 1 [7], 8.5 µM; in [8], more than 100 µM; at TP53-binding protein 1 [10], 0.47 µM; in [12], more than 100 µM; at PHD finger protein 19, more than 100 µM. Moreover, the concentration for half-maximal inhibition (IC50) (at M-phase phosphoprotein 8; in [13]; in series [15]) was more than 100 µM in each case. Besides, the values for the Kd at TP53-binding protein 1 [6] and on TP53-binding protein 1 [14] were 0.79 µM and 0.85 µM, respectively. For the same molecule, the deltaH at TP53-binding protein 1 [9] is -9.2 kcal/mol. The molecule also returned a Kinetic_solubility in series [11] of 194 µM.

Consider `CN1CCN(c2ccnc(C(=O)N3CCC[C@H](C(=O)Nc4cccc(-c5ccc6c(c5)CNC6)c4)C3)c2)CC1.Cl.Cl.Cl`, for which the Activity result in the series with TERT-RPE1 [3] and in the series with HEK-293T [4] was “Non-Toxic” throughout.

On TP53-binding protein 1 [10], `CN1CCN(c2cccc(C(=O)N3CCC[C@H](C(=O)Nc4cccc(-c5ccc(C(N)=O)cc5)c4)C3)c2)CC1` registered a half-inhibitory concentration (IC50) of 1.3 µM.

Turning to `CN1CCN(c2ccnc(C(=O)N3CCC[C@H](C(=O)Nc4cccc(-c5ccccc5)c4)C3)c2)CC1`, at TP53-binding protein 1 [10], the IC50 was determined as 3.8 µM.

For the molecule `CNC(=O)c1cccc(-c2cccc(NC(=O)[C@H]3CCCN(C(=O)c4cc(N5CCN(C)CC5)ccn4)C3)c2)c1`, the IC50 on TP53-binding protein 1 [10] stood at 11 µM.
